Entries after “also recorded” stand apart in the source; their conditions may differ. Each block holds one molecule with its values, some of them ahead of it. FAM = carboxyfluorescein
Columns and labels:
HDM2 (1-125) M62A = target: T1, HDM2 (1-125) M62A (Homo sapiens, UniProt Q00987, M62A); assay: Fluorescence anisotropy, competitive titration, HDM2 M62A; assay type: binding; settings: M62A compared to wild-type
T1 construct: using purified HDM2 (1-125) and carboxyfluorescein (FAM) labeled 12-1 peptide; GST (N, cleaved yes); made in house; host or cells: E. coli BL21 DE3
Method: (§1) Cells harbouring the GST fusion constructs were grown in LB medium at 37°C to an OD600 of ~0.6 and induction was carried out with 1 mM IPTG at room temperature. Cells were harvested by centrifugation and the cell pellets were resuspended in 50 mM Tris pH 8.0, 10% sucrose and then sonicated. The sample was next centrifuged for 60 mins at 17,000 g at 4°C. The supernatant was applied to a 5 mL FF GST column (Amersham) pre-equilibrated in wash buffer (50 mM Tris-HCl pH 8.0, 150 mM NaCl, 1 mM DTT). The column was then further washed by 6 volumes of wash buffer. HDM2 constructs were then purified from the column by cleavage with Precission protease (GE Lifesciences). 10 units of precission protease, in one column volume of wash buffer, were injected onto the column. The cleavage reaction was allowed to proceed overnight at 4°C. The cleaved protein was then eluted off the column with wash buffer. Protein fractions were analyzed with SDS page gel and concentrated using Centricon (3.5 kDa MWCO) concentrator. […] Protein fractions were analyzed with SDS page gel and concentrated using a Centricon (3.5 kDa MWCO) concentrator, Millipore.
(§2) All titrations were carried out in triplicate. Curve-fitting was carried out using Prism 4.0 (GraphPad).

HDM2 (1-125) Q24R = target: T2, HDM2 (1-125) Q24R (Homo sapiens, UniProt Q00987, Q24R); assay: Fluorescence anisotropy, competitive titration, HDM2 Q24R; assay type: binding; settings: Q24R compared to wild-type
T2 construct: using purified HDM2 (1-125) and carboxyfluorescein (FAM) labeled 12-1 peptide; GST (N, cleaved yes); made in house; host or cells: E. coli BL21 DE3
Method: as §1, §2

HDM2 (1-125) P20L = target: T3, HDM2 (1-125) P20L (Homo sapiens, UniProt Q00987, P20L); assay: Fluorescence anisotropy, competitive titration, HDM2 P20L; assay type: binding; settings: P20L compared to wild-type
T3 construct: using purified HDM2 (1-125) and carboxyfluorescein (FAM) labeled 12-1 peptide; GST (N, cleaved yes); made in house; host or cells: E. coli BL21 DE3
Method: as §1, §2

[1] = system: HDM2-p53 interaction (wild-type HDM2); assay: In vitro pull-down assay, p53-HDM2 wild-type; assay type: binding; settings: 10 µM, IVT-expressed proteins
Excerpt: (§3) Single mutant HDM2 clones were generated by Quickchange mutagenesis (Stratagene) of parental HDM2-PET22b using appropriate primers 1-6. The constructs were amplified with primers petF2 and petR to make HDM2 amplicons with T7 promoter and ribosome binding site required for in vitro transcription-translation (IVT) of wild-type or mutant HDM2. Primers 1-6 were used to introduce mutations into the parental pCMV-HDM2 mammalian expression construct by Quickchange mutagenesis. Both the HDM2-PET22b and pCMV-HDM2 constructs additionally encode a C-terminal HA tag. The plasmid p53-PET22b was also amplified with petF2 and petR to make template for IVT of wild-type p53.
Protein G beads (Invitrogen) were incubated with anti-HA (1 µg per 10 µL beads) for 1 hour in PBST-3%BSA and subsequently washed twice in PBST-0.1%BSA. IVT-expressed wild-type or mutant HDM2 was incubated with the beads on a rotator for 30 mins. […] IVT-expressed p53 was added to the mixture and incubation allowed for 1 hour. Beads were finally washed thrice in PBST-0.1%BSA and thrice with PBS, and bound proteins eluted by resuspension in 20 µL SDS-PAGE loading buffer and incubation at 95°C for 5 minutes. […]

[2] = system: HDM2-p53 interaction (M62A HDM2); assay: In vitro pull-down assay, p53-HDM2 M62A; assay type: binding; settings: 10 µM, IVT-expressed proteins
Excerpt: as §3, with “tag.” for “tag. The plasmid p53-PET22b was also amplified with petF2 and petR to make template for IVT of wild-type p53.”
(§4) Protein G beads (Invitrogen) were incubated with anti-HA (1 µg per 10 µL beads) for 1 hour in PBST-3%BSA and subsequently washed twice in PBST-0.1%BSA. IVT-expressed wild-type or mutant HDM2 was incubated with the beads on a rotator for 30 mins. […] IVT-expressed p53 was added to the mixture and incubation allowed for 1 hour. Beads were finally washed thrice in PBST-0.1%BSA and thrice with PBS, and bound proteins eluted by resuspension in 20 µL SDS-PAGE loading buffer and incubation at 95°C for 5 minutes. Both the eluates and inputs were subjected to electrophoresis, transferred to nitrocellulose membranes and probed for p53 with horseradish peroxidise conjugated DO1 antibody (Santa Cruz) or for HDM2 with anti-HA antibody followed by rabbit anti-mouse (Dakocytomation).

[3] = system: HDM2-p53 interaction (Q24R HDM2); assay: In vitro pull-down assay, p53-HDM2 Q24R; assay type: binding; settings: 10 µM, IVT-expressed proteins
Excerpt: as §3, with “tag.” for “tag. The plasmid p53-PET22b was also amplified with petF2 and petR to make template for IVT of wild-type p53.”
as §4

[4] = system: wild-type HDM2 / p53 transactivation in p53/MDM2-null DKO cells; assay: p53 reporter assay in p53/MDM2-null DKO cells, wild-type HDM2; assay type: cell-based, mouse; settings: stapled peptide, 20 µM, mean ± SD (n=2)
Method: (§5) Mouse embryonic fibroblast p53/Mdm2 double-knockout (DKO) cells (a kind gift from Guillermina Lozano) [30] and H1299 p53^−/− cells [31] were maintained in Dulbecco's modified Eagle's medium (DMEM) with 10% (v/v) foetal calf serum (FCS) and 1% (v/v) penicillin/streptomycin. The cells were seeded at 1.0 × 10^5 cells/well in 6-well plates, 24 hours prior to transfection. Cells were co-transfected with wild-type or mutant HDM2 plasmid, p53-pcDNA plasmid, LacZ reporter plasmid and luciferase plasmid using TurboFect transfection reagent (Thermo Scientific) according to the manufacturer’s instructions. […] In all cases, the total amount of plasmid DNA transfected per well was equilibrated by addition of the parental vector pcDNA3.1a(+).
(§6) DKO cells were harvested 24hours after transfection and β-galactosidase activities were assessed using the Dual-light System (Applied Biosystems) according to the manufacturer's protocol. The β-galactosidase activity was normalized with luciferase activity for each sample.

[5] = system: M62A HDM2 / p53 transactivation in p53/MDM2-null DKO cells; assay: p53 reporter assay in p53/MDM2-null DKO cells, HDM2 M62A; assay type: cell-based, mouse; settings: stapled peptide, 20 µM, mean ± SD (n=2)
Method: as §5, §6

[6] = system: wild-type and mutant (M62A, Q24R) HDM2; p53-dependent genes in HCT116 p53^+/+ cells; assay: RT-qPCR of p53-regulated genes in HCT116 p53+/+ cells transfected with HDM2 variants; assay type: cell-based; settings: Nutlin 10 µM; M62A and Q24R compared to wild-type; 24 h post-transfection; RT-qPCR (n=2)
Excerpt: In all cases, the total amount of plasmid DNA transfected per well was equilibrated by addition of the parental vector pcDNA3.1a(+).

[7] = system: p53 (1-81) - HDM2 (7-134) interaction, wild-type, Q24R and M62A, in BHK cells; assay: Fluorescent 2-Hybrid (F2H) co-localization assay; assay type: cell-based; settings: 1 hour at 37°C, titration, difference particularly evident at 1-10 µM for Nutlin, n=4
Method: Interaction (%) was determined as the ratio of cells showing co-localization of fluorescent signals at the nuclear spot to the total number of evaluated cells. To enable comparison between the experiments, a normalization step was performed. For each independent experiment, the interaction ratios in treated wells were normalized to the interaction ratios in control (untreated) wells:
I % = 100% * Interactions_treated/Interactions_untreated
In this way, the control values in each experiment are taken to be 100%. For automated image acquisition an INCell Analyzer 1000 with a 20X objective (GE Healthcare) was used. Automated image segmentation and analysis was performed with the corresponding INCell Workstation 3.6 software. At least 100 co-transfected cells were analyzed per well. Titrations were carried out independently three to five times.
For the F2H assay, significance (t-test) is denoted relative to the percentage interactions observed for wild-type HDM2 under the indicated treatment conditions. For transcript analysis by real-time PCR, two-way ANOVA with Bonferroni post test was performed using GraphPad Prism software.

HDM2 Y104G = settings: mutation in secondary Nutlin binding site; ref [54]; cited from earlier work
Excerpt: Studies have shown that K51 of HDM2 interacts with E23 and E25 of HDM ...

HDM2 M62 = settings: ref [19]; cited from earlier work
Excerpt: Modelling studies show the hydrophobic hydrocarbon chain comprising the staple interacts with HDM2 in the vicinity of M62 (Figure 6). Whilst the M62A mutation impacts negatively on binding of both stapled peptide and p53 compared to wild type HDM2, the presence of additional “fall-back” interactions (apart from M62, see below) results in marginal overall loss of binding by these ligands. […] Mutation to alanine causes marg ...

[8] = target: T4, HDM2 (1-125), wild-type, purified (human, UniProt Q00987 1-125); assay: fluorescence polarisation; competitive fluorescence anisotropy titrations against FAM-labelled 12-1 peptide with purified HDM2 (1-125); apparent Kds; PBS pH 7.4, 3% DMSO, 0.1% Tween 20
T4 construct: source: E. coli BL21 DE3, purified (GST column, PreScission cleavage, ResourceS)

[9] = target: T5, HDM2 (1-125) M62A, purified (human, UniProt Q00987 1-125, M62A); assay: as above
T5 construct: also called HDM2-M62A; source: E. coli BL21 DE3, purified (GST column, PreScission cleavage, ResourceS)

[10] = target: T6, HDM2 (1-125) Q24R, purified (human, UniProt Q00987 1-125, Q24R); assay: as above
T6 construct: source: E. coli BL21 DE3, purified (GST column, PreScission cleavage, ResourceS)

[11] = target: T7, HDM2 (1-125) P20L, purified (human, UniProt Q00987 1-125, P20L); assay: as above
T7 construct: source: E. coli BL21 DE3, purified (GST column, PreScission cleavage, ResourceS)
T7 sequence (Q00987 1-125 P20L): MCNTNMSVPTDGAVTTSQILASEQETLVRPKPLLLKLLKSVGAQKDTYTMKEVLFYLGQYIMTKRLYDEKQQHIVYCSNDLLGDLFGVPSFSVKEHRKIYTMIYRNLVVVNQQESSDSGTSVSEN

T5 sequence (Q00987 1-125 M62A): as the sequence (Q00987 1-125 P20L) above, with L20P, M62A counted along it
T4 sequence (Q00987 1-125): as the sequence (Q00987 1-125 P20L) above, with L20P counted along it
T6 sequence (Q00987 1-125 Q24R): as the sequence (Q00987 1-125 P20L) above, with L20P, Q24R counted along it
T3 sequence (Q00987 1-125 P20L): as the sequence (Q00987 1-125 P20L) above
T1 sequence (Q00987 1-125 M62A): as the sequence (Q00987 1-125 P20L) above, with L20P, M62A counted along it
T2 sequence (Q00987 1-125 Q24R): as the sequence (Q00987 1-125 P20L) above, with L20P, Q24R counted along it

Molecule: COc1ccc(C2=N[C@@H](c3ccc(Cl)cc3)[C@@H](c3ccc(Cl)cc3)N2C(=O)N2CCNC(=O)C2)c(OC(C)C)c1 [Nutlin]
Inhibition of p53-HDM2 interaction (pull-down, Western blot) [1]: strong repression of the HDM2-p53 interaction; also recorded: inhibits p53-HDM2 interaction
p53 activation of p21, gadd45α and 14-3-3σ transcript levels, mutants versus wild-type HDM2 [6]: significant reduction of p53 transcriptional activity was observed for the M62A and Q24R mutants compared to wild-type
Dissociation of p53-HDM2 complex, mutants (Q24R, M62A) versus wild-type (F2H) [7]: reduced dissociation of mutant N-terminal domains from p53, indicating Nutlin resistance; also recorded: increased dissociation of WT-p53 complex compared to Q24R/M62A-p53 complexes
Binding to HDM2 Y104G (HDM2 Y104G): recalcitrant to Nutlin binding
Effect of loss of M62 contact on Nutlin binding (HDM2 M62): major loss of binding

B1: carboxyfluorescein (FAM) labeled 12-1 peptide (FAM-RFMDYWEGL-NH2) (peptide)
peptide: {FAM}-RFMDYWEGL-NH2
notes: that it is not a natural p53 stretch is my surmise
binding result ([8]; both partners purified): binds
binding result ([9]; both partners purified): binds
binding result ([10]; both partners purified): binds
binding result ([11]; both partners purified): binds

Continued, in another order:

Change of binding affinity versus wild-type HDM2 (HDM2 (1-125) M62A): very slight perturbation of binding
Change of binding affinity versus wild-type HDM2 (HDM2 (1-125) Q24R): not perturbed
Change of binding affinity versus wild-type HDM2 (HDM2 (1-125) P20L): not perturbed
Molecule: CC(=O)N[C@H](C(=O)N[C@@H](CO)C(=O)N[C@@H](Cc1ccccc1)C(=O)N[C@]1(C)CCCCCCC=CCCC[C@@](C)(C(N)=O)NC(=O)[C@H](CC(C)C)NC(=O)[C@H](CC(C)C)NC(=O)[C@H](C)NC(=O)[C@H](Cc2c[nH]c3cc(Cl)ccc23)NC(=O)[C@H](Cc2ccc(O)cc2)NC(=O)[C@H](CCC(=O)O)NC1=O)[C@@H](C)O [MO11]
Inhibition of p53-HDM2 interaction (pull-down, Western blot) [1]: strong repression of the HDM2-p53 interaction; also recorded: inhibition of p53 binding to both WT and mutant HDM2
Inhibition of p53-HDM2 interaction (pull-down, Western blot) [2]: able to abrogate the mutant HDM2-p53 interaction as efficiently as Nutlin inhibits the wild-type HDM2-p53 interaction; also recorded: inhibition of p53 binding to both WT and mutant HDM2
Inhibition of p53-HDM2 interaction (pull-down, Western blot) [3]: able to abrogate the mutant HDM2-p53 interaction as efficiently as Nutlin inhibits the wild-type HDM2-p53 interaction; also recorded: inhibition of p53 binding to both WT and mutant HDM2
p53 reporter activity restored (percentage of activity with p53-only transfection) [4]: 51%
p53 reporter activity restored (percentage of activity with p53-only transfection) [5]: 47%

Kd [8]: 13.9 nM
Kd [9]: 29.6 nM
Kd [10]: 10.4 nM
Kd [11]: 17.2 nM
Molecule: P53 peptide (ligand of Table 1)
